Laboratory results as given in ChEMBL document CHEMBL4725268, “Anticonvulsant and analgesic in neuropathic pain activity in a group of new aminoalkanol derivatives” (Bioorg Med Chem Lett, 2020).
The source made the active and inactive calls.

Tests used:
[1] = Toxicity in mouse assessed as lethality at 50 mg/kg, ip; type: organism-based; conditions: in vivo
Mus musculus [2] = test: Anticonvulsant activity in ip dosed albino mouse assessed as protection against 50 mA current-induced seizure by maximal electroshock seizure test; type: functional
[3] = Drug metabolism in mouse microsome assessed as formation of monohydroxylated metabolite; type: ADME; conditions: microsomes
[4] = Toxicity in ip dosed mouse assessed as motor impairment by rotarod test; type: organism-based; conditions: in vivo
[5] = Protection index, ratio of TD50 for toxicity in ip dosed mouse to ED50 for anticonvulsant activity in ip dosed mouse; type: organism-based; conditions: in vivo, read-out: PI
in vitro [6] = conditions: mouse, microsomes
Description: Metabolic stability in mouse microsome assessed as intrinsic clearance

Mus musculus [7] = test: Antiallodynic activity in mouse model of OXA-induced peripheral neuropathy assessed as mean latency time to nocifensive response at 15 mg/kg, ip administered after 3 hrs of OXA stimulation and measured after 1 hr by cold plate method (reference value: 59.76 +/- 0.16 sec); type: functional
Mus musculus [8] = test: Antiallodynic activity in mouse model of OXA-induced peripheral neuropathy assessed as mean paw withdrawal threshold at 15 mg/kg, ip administered after 3 hrs of OXA stimulation and measured after 1 hr by Von-frey method (reference value: 3.144 +/- 0.169 g); type: functional
Mus musculus [9] = test: Antiallodynic activity in mouse model of OXA-induced peripheral neuropathy assessed as mean latency time to nocifensive response at 15 mg/kg, ip administered after 7 days of OXA stimulation and measured after 1 hr by cold plate method (reference value: 57.64 +/- 1.267 sec); type: functional
in vitro [10] = conditions: mouse, microsomes; remark: listed apart in the source
Description: Metabolic stability in mouse microsome assessed as half life

Mus musculus [11] = test: Anticonvulsant activity in ip dosed mouse assessed as protection against current-induced seizure by maximal electroshock seizure test; type: functional
Mus musculus [12] = test: Antiallodynic activity in mouse model of OXA-induced peripheral neuropathy assessed as mean paw withdrawal threshold at 15 mg/kg, ip administered after 7 days of OXA stimulation and measured after 1 hr by Von-frey method (reference value: 3.192 +/- 0.181 g); type: functional
[13] = target: T1, 5-hydroxytryptamine receptor 1A (Homo sapiens, UniProt P08908); test: Binding affinity to 5-HT1A (unknown origin)
T1 sequence (P08908 whole entry): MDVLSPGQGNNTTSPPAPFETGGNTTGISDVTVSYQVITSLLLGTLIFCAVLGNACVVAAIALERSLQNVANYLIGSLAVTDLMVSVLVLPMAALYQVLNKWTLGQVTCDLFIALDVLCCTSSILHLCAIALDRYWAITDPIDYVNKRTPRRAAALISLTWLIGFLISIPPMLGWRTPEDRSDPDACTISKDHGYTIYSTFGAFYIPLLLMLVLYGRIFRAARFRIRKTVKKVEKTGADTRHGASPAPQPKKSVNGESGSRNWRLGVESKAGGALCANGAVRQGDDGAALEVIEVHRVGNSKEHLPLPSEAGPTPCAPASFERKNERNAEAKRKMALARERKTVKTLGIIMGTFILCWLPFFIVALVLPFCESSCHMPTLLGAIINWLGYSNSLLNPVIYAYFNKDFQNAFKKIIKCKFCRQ

[14] = Antioxidant activity assessed as DPPH radical scavenging activity at 125 to 1000 uM by microplate method; type: functional; conditions: dose microM 125-1000
[15] = Genotoxicity in Salmonella typhimurium TA100 assessed as number of revertant at 75 ug by AMES test (reference value: 64.3 to 130.7); type: toxicity, Salmonella enterica subsp. enterica serovar Typhimurium; conditions: in vivo; dose 75 µg
Mus musculus [16] = test: Antiallodynic activity in mouse model of OXA-induced peripheral neuropathy assessed as mean latency time to nocifensive response at 18 mg/kg, ip administered after 3 hrs of OXA stimulation and measured after 1 hr by cold plate method (reference value: 59.76 +/- 0.16 sec); type: functional
[17] = Genotoxicity in Salmonella typhimurium TA100 assessed as mutagenic index at 750 ug by AMES test; type: toxicity, Salmonella enterica subsp. enterica serovar Typhimurium; conditions: in vivo; dose 750 µg
[18] = Genotoxicity in Salmonella typhimurium TA98 assessed as number of revertant at 200 ug by AMES test (reference value: 8 to 8.3); type: toxicity, Salmonella enterica subsp. enterica serovar Typhimurium; conditions: in vivo; dose 200 µg
[19] = Genotoxicity in Salmonella typhimurium TA98 assessed as mutagenic index at 75 ug by AMES test; type: toxicity, Salmonella enterica subsp. enterica serovar Typhimurium; conditions: in vivo; dose 75 µg
[20] = Genotoxicity in Salmonella typhimurium TA98 assessed as number of revertant at 10 ug by AMES test (reference value: 8 to 8.3); type: toxicity, Salmonella enterica subsp. enterica serovar Typhimurium; conditions: in vivo; dose 10 µg
[21] = Genotoxicity in Salmonella typhimurium TA98 assessed as mutagenic index at 200 ug by AMES test; type: toxicity, Salmonella enterica subsp. enterica serovar Typhimurium; conditions: in vivo; dose 200 µg
[22] = Genotoxicity in Salmonella typhimurium TA100 assessed as number of revertant at 750 ug by AMES test (reference value: 64.3 to 130.7); type: toxicity, Salmonella enterica subsp. enterica serovar Typhimurium; conditions: in vivo; dose 750 µg
[23] = Genotoxicity in Salmonella typhimurium TA98 assessed as mutagenic index at 500 ug by AMES test; type: toxicity, Salmonella enterica subsp. enterica serovar Typhimurium; conditions: in vivo; dose 500 µg
[24] = Genotoxicity in Salmonella typhimurium TA98 assessed as number of revertant at 500 ug by AMES test (reference value: 8 to 8.3); type: toxicity, Salmonella enterica subsp. enterica serovar Typhimurium; conditions: in vivo; dose 500 µg
[25] = Genotoxicity in Salmonella typhimurium TA100 assessed as mutagenic index at 75 ug by AMES test; type: toxicity, Salmonella enterica subsp. enterica serovar Typhimurium; conditions: in vivo; dose 75 µg
[26] = Genotoxicity in Salmonella typhimurium TA98 assessed as number of revertant at 75 ug by AMES test (reference value: 8 to 8.3); type: toxicity, Salmonella enterica subsp. enterica serovar Typhimurium; conditions: in vivo; dose 75 µg
[27] = Genotoxicity in Salmonella typhimurium TA100 assessed as number of revertant at 200 ug by AMES test (reference value: 64.3 to 130.7); type: toxicity, Salmonella enterica subsp. enterica serovar Typhimurium; conditions: in vivo; dose 200 µg
Mus musculus [28] = test: Antiallodynic activity in mouse model of OXA-induced peripheral neuropathy assessed as mean paw withdrawal threshold at 18 mg/kg, ip administered after 7 days of OXA stimulation and measured after 1 hr by Von-frey method (reference value: 3.192 +/- 0.181 g); type: functional
[29] = Genotoxicity in Salmonella typhimurium TA100 assessed as mutagenic index at 10 ug by AMES test; type: toxicity, Salmonella enterica subsp. enterica serovar Typhimurium; conditions: in vivo; dose 10 µg
[30] = Genotoxicity in Salmonella typhimurium TA98 assessed as mutagenic index at 10 ug by AMES test; type: toxicity, Salmonella enterica subsp. enterica serovar Typhimurium; conditions: in vivo; dose 10 µg
Mus musculus [31] = test: Antiallodynic activity in mouse model of OXA-induced peripheral neuropathy assessed as mean paw withdrawal threshold at 18 mg/kg, ip administered after 3 hrs of OXA stimulation and measured after 1 hr by Von-frey method (reference value: 3.144 +/- 0.169 g); type: functional
Mus musculus [32] = test: Antiallodynic activity in mouse model of OXA-induced peripheral neuropathy assessed as mean latency time to nocifensive response at 18 mg/kg, ip administered after 7 days of OXA stimulation and measured after 1 hr by cold plate method (reference value: 57.64 +/- 1.267 sec); type: functional
[33] = Genotoxicity in Salmonella typhimurium TA100 assessed as number of revertant at 10 ug by AMES test (reference value: 64.3 to 130.7); type: toxicity, Salmonella enterica subsp. enterica serovar Typhimurium; conditions: in vivo; dose 10 µg
[34] = Genotoxicity in Salmonella typhimurium TA100 assessed as mutagenic index at 200 ug by AMES test; type: toxicity, Salmonella enterica subsp. enterica serovar Typhimurium; conditions: in vivo; dose 200 µg
[35] = Toxicity in mouse assessed as lethality at 30 mg/kg, ip; type: organism-based; conditions: in vivo

In the case of Cc1ccc(OCCCN2CCC(O)CC2)c(C)c1, the Activity [1] is reported as “Non-Toxic”.

CC(C)NC[C@H](O)COc1cccc2ccccc12 [LEVOPROPRANOLOL] showed an ED50 (Mus musculus [2]) of 19.2 mg/kg.

In the case of Cc1cc(C)c(OCCCN[C@@H]2CCCC[C@H]2O)c(C)c1 (relative stereo), the Drug metabolism [3] is reported as “Metabolite_Detected”, the TD50 [4] is reported as 42.9 mg/kg and the selectivity ratio [5] is reported as 2.9. For the same molecule, the microsomal CLint (in vitro [6]) was 128 µL/min/mg, the Activity [1] was “Non-Toxic” and the Time (Mus musculus [7]) was 19.35 s. It also gave an Activity (Mus musculus [8]) of 1.999 g, a Time (Mus musculus [9]) of 7.09 s and a half-life (in vitro [10]) of 27.2 min. It also gave an ED50 (Mus musculus [11]) of 14.8 mg/kg, an Activity (Mus musculus [12]) of 1.958 g and a Ki [13] of 2.37 µM. For the same molecule, the Activity [14] was “inactive”.

In the case of Cc1cc(C)c(C)c(OCCOCCN[C@H]2CCCC[C@@H]2O)c1.Cl (racemic), the Activity [15] is reported as 80.7, the Drug metabolism [3] is reported as “Metabolite_Detected” and the Time (Mus musculus [16]) is reported as 20.92 s. For the same molecule, the Activity_index [17] was 0.4, the TD50 [4] was 54.2 mg/kg and the Activity [18] was 11. For the same molecule, the Activity_index [19] was 1, the selectivity ratio [5] was 2.91 and the microsomal CLint (in vitro [6]) was 93 µL/min/mg. For the same molecule, the Activity [20] was 7, the Activity [1] was “Non-Toxic” and the Activity_index [21] was 1.4. For the same molecule, the Activity [22] was 56, the Activity_index [23] was 1.1 and the Activity [24] was 9. It also gave an Activity_index [25] of 1.1, an Activity [26] of 8 and an Activity [27] of 70.5. For the same molecule, the Activity (Mus musculus [28]) was 1.907 g, the half-life (in vitro [10]) was 37.2 min and the ED50 (Mus musculus [11]) was 18.2 mg/kg. It also gave an Activity_index [29] of 1.2, an Activity_index [30] of 0.9 and an Activity (Mus musculus [31]) of 2.09 g. For the same molecule, the Ki [13] was 1.2 µM, the Activity [14] was “inactive” and the Time (Mus musculus [32]) was 8.86 s. For the same molecule, the Activity [33] was 86 and the Activity_index [34] was 1.

In the case of Cc1cc(C)c(OCCCN[C@H]2CC[C@H](O)CC2)c(C)c1, the Activity [35] is reported as “Toxic”.
